In paper PMC11403423 (iScience, 2024):

Legend:
[1] = test system: #1-LTL+ and #2-LTL+ PToCs; test: Nephrotoxicity testing, LDH release; type: cell-based, human; conditions: for Effect on cisplatin-induced LDH release: cimetidine 10 mM, cisplatin 100 μM
MRPs [2] = test: Transcellular transport assay of OAT1/3 substrates with MK571 in #1-LTL+ PToC; conditions: 10 μM MK571
MRPs [3] = test: Fluorescein uptake and transport with MK571 in #1-LTL+ PToC; type: cell-based, human
OAT1 = molecular target: T1, OAT1 (Homo sapiens, UniProt Q4U2R8); test: Transcellular transport assay of OAT1 substrates; conditions: 10 μM substrate; #1-LTL+ PToC
T1 sequence (Q4U2R8 1-563): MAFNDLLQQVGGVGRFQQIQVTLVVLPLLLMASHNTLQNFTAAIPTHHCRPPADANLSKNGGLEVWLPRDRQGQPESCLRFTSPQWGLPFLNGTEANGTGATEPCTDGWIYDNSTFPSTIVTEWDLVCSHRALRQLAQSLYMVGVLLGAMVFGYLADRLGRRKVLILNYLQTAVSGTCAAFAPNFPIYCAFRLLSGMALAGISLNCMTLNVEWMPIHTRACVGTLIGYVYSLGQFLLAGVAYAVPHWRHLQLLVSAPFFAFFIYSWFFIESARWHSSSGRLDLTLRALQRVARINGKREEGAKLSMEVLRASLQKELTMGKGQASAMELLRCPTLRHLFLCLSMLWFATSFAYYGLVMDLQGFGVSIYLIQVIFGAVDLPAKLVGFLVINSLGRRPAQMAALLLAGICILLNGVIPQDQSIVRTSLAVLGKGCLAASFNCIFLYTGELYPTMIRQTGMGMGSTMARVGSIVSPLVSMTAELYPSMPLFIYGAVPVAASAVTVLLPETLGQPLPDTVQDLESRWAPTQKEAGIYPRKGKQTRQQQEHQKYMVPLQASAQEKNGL

#1-LTL+ PToC = test: LIVE/DEAD cell viability assay; type: cell-based, human; conditions: cimetidine with cisplatin
OAT1/3 [4] = test: Transported fluorescein amount; type: in vitro ADME, human; conditions: plate reader; 30 min
OAT1/3 [5] = test: Fluorescein uptake assay; type: cell-based, human; conditions: 2 μM fluorescein, 30 min
OCT2 and MATE1 = test: Transcellular transport assay of metformin in PToC, LC/MS
OAT3 = molecular target: T2, OAT3 (Homo sapiens, UniProt Q8TCC7); test: Transcellular transport assay of OAT3 substrate
T2 sequence (Q8TCC7 1-542): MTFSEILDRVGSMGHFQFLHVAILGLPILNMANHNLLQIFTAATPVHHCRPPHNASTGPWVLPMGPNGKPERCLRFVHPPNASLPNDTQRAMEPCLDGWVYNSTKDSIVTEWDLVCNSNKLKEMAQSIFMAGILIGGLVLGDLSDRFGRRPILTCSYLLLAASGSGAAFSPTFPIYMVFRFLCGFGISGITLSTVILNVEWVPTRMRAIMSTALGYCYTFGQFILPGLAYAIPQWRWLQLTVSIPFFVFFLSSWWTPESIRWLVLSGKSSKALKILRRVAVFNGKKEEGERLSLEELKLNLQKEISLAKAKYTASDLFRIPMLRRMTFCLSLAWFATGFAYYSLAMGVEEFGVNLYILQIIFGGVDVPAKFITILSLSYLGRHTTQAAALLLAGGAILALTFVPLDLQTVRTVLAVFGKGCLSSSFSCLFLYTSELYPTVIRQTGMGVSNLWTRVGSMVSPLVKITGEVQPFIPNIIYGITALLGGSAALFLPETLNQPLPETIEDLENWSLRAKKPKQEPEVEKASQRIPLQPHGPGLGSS

P-gp = P-gp (Homo sapiens, UniProt P08183); conditions: #2-LTL+ PToC
P-gp, sequence (P08183 whole entry): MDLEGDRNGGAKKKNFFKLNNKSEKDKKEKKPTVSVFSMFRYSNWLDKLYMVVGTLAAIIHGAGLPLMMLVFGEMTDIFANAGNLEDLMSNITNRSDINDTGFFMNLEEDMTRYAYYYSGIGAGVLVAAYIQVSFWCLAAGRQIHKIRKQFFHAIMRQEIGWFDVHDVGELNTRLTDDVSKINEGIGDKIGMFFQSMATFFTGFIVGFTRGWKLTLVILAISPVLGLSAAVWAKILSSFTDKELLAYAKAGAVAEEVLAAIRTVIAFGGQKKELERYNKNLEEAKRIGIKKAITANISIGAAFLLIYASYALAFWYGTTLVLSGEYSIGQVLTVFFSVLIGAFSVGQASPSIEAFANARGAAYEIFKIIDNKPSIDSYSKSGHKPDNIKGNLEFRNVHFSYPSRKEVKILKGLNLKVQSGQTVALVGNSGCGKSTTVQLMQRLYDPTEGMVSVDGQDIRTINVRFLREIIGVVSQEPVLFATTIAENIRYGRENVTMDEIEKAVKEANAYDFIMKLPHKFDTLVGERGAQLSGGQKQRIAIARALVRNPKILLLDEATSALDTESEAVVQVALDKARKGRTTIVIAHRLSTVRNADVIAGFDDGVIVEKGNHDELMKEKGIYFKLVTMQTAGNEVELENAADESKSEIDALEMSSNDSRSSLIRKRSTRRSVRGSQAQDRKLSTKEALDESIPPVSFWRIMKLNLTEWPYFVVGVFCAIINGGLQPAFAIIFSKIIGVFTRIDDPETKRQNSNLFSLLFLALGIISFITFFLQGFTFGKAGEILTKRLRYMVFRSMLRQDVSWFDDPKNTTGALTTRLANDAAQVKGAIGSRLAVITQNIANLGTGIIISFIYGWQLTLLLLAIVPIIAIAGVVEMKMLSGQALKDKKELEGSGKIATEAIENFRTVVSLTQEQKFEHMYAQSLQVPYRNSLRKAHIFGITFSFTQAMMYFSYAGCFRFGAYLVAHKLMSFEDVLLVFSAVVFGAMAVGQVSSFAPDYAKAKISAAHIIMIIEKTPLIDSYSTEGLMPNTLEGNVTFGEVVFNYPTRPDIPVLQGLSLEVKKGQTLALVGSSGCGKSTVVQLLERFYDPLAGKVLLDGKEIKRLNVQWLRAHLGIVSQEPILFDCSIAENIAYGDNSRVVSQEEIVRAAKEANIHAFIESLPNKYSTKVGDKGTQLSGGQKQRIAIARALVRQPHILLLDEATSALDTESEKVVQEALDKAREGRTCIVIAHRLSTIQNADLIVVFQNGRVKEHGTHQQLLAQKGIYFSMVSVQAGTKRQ

SMILES: COc1cccc2c1cc([N+](=O)[O-])c1c(C(=O)O)cc3c(c12)OCO3 [AA, Aristolochic acid I]
- Normalized LDH release in #1-LTL+ compared to #2-LTL+ ([1]; 50 μM, 24 h): markedly higher
- Normalized LDH release compared to control group without aristolochic acid ([1]; 50 μM, basal, 24 h, #1-LTL+ and #2-LTL+ PToCs): significantly higher

SMILES: CN(C)C(=O)CCSC(SCCC(=O)O)c1cccc(/C=C/c2ccc3ccc(Cl)cc3n2)c1 (stereo not drawn) [MK571]
- Effect on OAT1 excretion of PAH (MRPs [2]): significant impairment
- Effect on OAT1 excretion of adefovir (MRPs [2]): significant impairment
- Effect on OAT3 transport of rosuvastatin (MRPs [2]): no substantial effect
- Fluorescein transcellular transport (MRPs [3]): reduction
- Intracellular fluorescein accumulation (fluorescence intensity) (MRPs [3]): notable increase

SMILES: Nc1ncnc2c1ncn2CCOCP(=O)(O)O [adefovir]
- Basal to apical (b → a) transport (Papp) in #1-LTL+ versus other PToC models (OAT1): notably higher

SMILES: CN/C(=N/CCSCc1nc[nH]c1C)NC#N [cimetidine]
- Effect on cisplatin-induced LDH release ([1]; 24 h, #1-LTL+): significant reduction
- Effect on cisplatin-induced LDH release ([1]; 24 h, #2-LTL+): less pronounced
- Effect on cisplatin-induced LDH release ([1]; 48 h, #1-LTL+ PToC): no difference among all conditions
- Effect on cisplatin-induced LDH release ([1]; 48 h, #2-LTL+ PToC): notable reduction
- Effect on cisplatin-induced cell death (LIVE/DEAD) (#1-LTL+ PToC): reduction in cell death

SMILES: O=C1OC2(c3ccc(O)cc3Oc3cc(O)ccc32)c2ccccc21 [fluorescein]
- Transcellular transport of fluorescein in #2-LTL+ PToC relative to #1-LTL+ PToC (OAT1/3 [4]): 10%
- Fluorescein uptake of #2-LTL+ PToC relative to #1-LTL+ PToC (OAT1/3 [5]): approximately 60%
- Fluorescein uptake compared to RPTEC (OAT1/3 [5]; #1-LTL+ and #2-LTL+ PToC, absence of probenecid): significantly higher fluorescein uptake

SMILES: CN(C)C(=N)N=C(N)N [metformin]
- Difference in ER between #1-LTL+ and #2-LTL+ PToCs (OCT2 and MATE1): no significant differences
- Transcellular basal to apical (b → a) transport rate, comparison of PToCs (OCT2 and MATE1; #1-LTL+ PToC versus #2-LTL+ and RPTEC): highest transport rates

SMILES: CCCN(CCC)S(=O)(=O)c1ccc(C(=O)O)cc1 [probenecid]
- Impact on rosuvastatin transport (OAT3; probenecid 100 μM, #1-LTL+ and #2-LTL+): minimal impact

SMILES: C=C[C@H]1C[N@@]2CC[C@H]1C[C@@H]2[C@@H](O)c1ccnc2ccc(OC)cc12 [quinidine]
- Basal to apical (b → a) transport rate compared with RPTEC (P-gp): less basal to apical (b → a) transport rate

SMILES: CC(C)c1nc(N(C)S(C)(=O)=O)nc(-c2ccc(F)cc2)c1/C=C/[C@@H](O)C[C@@H](O)CC(=O)O [rosuvastatin]
- Basal to apical (b → a) transport (Papp) in #1-LTL+ versus other PToC models (OAT3; 10 μM substrate, #1-LTL+ PToC): notably higher
